Measurements reported in BindingDB's records for doi:10.1016/j.ejmech.2017.04.042 (Laval University, 2017).

Assays:
[1] = target: T1, Cytochrome P450 1B1 (Homo sapiens, UniProt Q16678); experiment: Inhibition of CYP1B1 (unknown origin) expressed in Escherichia coli DH5alpha coexpressing human NADPH-P450 reductase using 7-Ethoxyresorufin as substrate up to 6 mins in presence of NADP+ by spectrofluorometric analysis
T1 sequence (Q16678 whole entry): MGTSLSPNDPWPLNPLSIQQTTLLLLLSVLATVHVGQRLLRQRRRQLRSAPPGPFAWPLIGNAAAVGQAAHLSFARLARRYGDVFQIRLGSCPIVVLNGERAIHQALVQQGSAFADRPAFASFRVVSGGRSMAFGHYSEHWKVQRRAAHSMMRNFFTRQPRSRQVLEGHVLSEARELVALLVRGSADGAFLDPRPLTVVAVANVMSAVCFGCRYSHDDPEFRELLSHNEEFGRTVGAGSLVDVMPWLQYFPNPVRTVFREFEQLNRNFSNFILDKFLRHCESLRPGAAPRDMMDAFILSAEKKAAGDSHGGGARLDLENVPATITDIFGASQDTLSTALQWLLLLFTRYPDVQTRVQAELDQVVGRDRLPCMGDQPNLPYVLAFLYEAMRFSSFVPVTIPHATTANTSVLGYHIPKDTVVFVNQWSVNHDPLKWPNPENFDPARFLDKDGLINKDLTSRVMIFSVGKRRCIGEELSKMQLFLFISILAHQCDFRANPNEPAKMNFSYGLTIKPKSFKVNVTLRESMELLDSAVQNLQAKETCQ

[2] = target: T2, Cytochrome P450 1A1 (Homo sapiens, UniProt P04798); experiment: Inhibition of CYP1A1 (unknown origin) expressed in Escherichia coli DH5alpha coexpressing human NADPH-P450 reductase using 7-Ethoxyresorufin as substrate up to 6 mins in presence of NADP+ by spectrofluorometric analysis
T2 sequence (P04798 whole entry): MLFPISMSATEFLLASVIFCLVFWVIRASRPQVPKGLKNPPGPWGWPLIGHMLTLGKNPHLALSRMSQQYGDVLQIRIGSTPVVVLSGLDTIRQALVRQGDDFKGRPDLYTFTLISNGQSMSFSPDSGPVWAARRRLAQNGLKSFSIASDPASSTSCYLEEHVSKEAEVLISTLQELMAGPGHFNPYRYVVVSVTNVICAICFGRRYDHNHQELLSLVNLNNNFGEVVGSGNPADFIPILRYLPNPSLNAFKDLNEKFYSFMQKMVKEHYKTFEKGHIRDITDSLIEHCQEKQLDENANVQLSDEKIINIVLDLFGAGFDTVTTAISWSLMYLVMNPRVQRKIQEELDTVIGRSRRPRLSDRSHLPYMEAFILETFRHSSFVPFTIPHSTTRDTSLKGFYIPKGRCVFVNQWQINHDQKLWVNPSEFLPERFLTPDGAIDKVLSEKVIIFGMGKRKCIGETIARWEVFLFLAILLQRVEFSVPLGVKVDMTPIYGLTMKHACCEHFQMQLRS

[3] = target: T3, Cytochrome P450 1A2 (Homo sapiens, UniProt P05177); experiment: ChEBML_1684878
T3 sequence (P05177 whole entry): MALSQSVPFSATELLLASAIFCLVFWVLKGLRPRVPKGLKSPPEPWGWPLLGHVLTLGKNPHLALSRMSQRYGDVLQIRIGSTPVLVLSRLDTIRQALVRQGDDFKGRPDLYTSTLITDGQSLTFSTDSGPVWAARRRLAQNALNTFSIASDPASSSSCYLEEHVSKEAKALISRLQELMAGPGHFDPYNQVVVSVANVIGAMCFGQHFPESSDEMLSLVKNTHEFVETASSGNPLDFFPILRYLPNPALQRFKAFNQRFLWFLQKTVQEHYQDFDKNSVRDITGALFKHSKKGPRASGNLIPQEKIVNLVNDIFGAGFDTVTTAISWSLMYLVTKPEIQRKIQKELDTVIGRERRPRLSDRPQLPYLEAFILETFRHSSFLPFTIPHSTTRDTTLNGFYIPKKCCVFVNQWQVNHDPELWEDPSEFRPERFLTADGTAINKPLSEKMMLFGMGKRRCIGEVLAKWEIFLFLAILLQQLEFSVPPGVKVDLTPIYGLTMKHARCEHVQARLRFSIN
Protocol: Competitive inhibition of human liver microsomes CYP1A2 expressed in supersomes coexpressing NADPH-CYP reductase using 7-Ethoxyresorufin as substrate measured every 5 mins for 30 mins in presence of NADPH by fluorescence assay

[4] = target: T1, Cytochrome P450 1B1; experiment: Inhibition of human CYP1B1 expressed in supersomes using ethoxyresorufin as substrate after 20 mins in presence of NADP by Dixon plot analysis

| Compound | IC50 [1] | IC50 [2] | IC50 [3] | Ki [4] |
| --- | --- | --- | --- | --- |
| N#C[Se]Cc1cccc(C[Se]C#N)c1 | 130 nM | 100 nM | 200 nM |  |
| C[C@]12CC[C@H]3[C@@H](CCC4=CC(=O)CC[C@@]43C)[C@@H]1CC[C@@H]2O [Testosterone, 1] |  |  |  | 412000 nM |
